# In BindingDB's records for doi:10.1124/jpet.300.1.314 (Glaxosmithkline, 2002):
# Several values for one entry are separate records, joined by “and”; a condition that tells them apart may be missing. Identical values can stand only once.
# Experiments:
# [1] = target: T1, Substance-K receptor (Cavia porcellus, UniProt Q64077)
# T1 sequence (Q64077 whole entry): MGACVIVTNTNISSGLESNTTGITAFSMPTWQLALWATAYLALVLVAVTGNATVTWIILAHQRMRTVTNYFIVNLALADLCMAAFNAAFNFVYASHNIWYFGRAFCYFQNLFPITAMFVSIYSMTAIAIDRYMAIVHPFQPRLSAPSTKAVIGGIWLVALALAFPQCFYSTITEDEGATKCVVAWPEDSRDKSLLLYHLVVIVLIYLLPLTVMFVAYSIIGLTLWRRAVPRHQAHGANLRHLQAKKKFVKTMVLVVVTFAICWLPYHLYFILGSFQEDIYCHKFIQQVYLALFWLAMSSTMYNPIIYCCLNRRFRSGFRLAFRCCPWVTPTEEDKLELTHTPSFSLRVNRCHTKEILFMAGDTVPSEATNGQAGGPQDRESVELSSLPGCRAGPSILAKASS
# [2] = target: T2, Substance-K receptor (Rattus norvegicus, UniProt P16610)
# T2 sequence (P16610 whole entry): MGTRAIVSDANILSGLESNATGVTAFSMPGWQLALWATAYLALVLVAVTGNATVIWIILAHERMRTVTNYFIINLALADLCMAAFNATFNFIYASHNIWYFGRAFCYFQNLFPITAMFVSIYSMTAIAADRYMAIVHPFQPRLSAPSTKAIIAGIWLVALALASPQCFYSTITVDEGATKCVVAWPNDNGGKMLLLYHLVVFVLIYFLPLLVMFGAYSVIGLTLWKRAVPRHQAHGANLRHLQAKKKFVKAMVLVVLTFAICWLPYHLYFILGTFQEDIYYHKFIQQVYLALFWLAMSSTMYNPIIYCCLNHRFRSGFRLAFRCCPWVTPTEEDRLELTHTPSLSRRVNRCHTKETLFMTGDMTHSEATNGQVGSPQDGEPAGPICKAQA
compound,measurement,setting,value
CC[C@H](NC(=O)c1c(OCC(=O)O)c(-c2ccccc2)nc2ccccc12)c1ccccc1 [N-[(S)-1-Phenylpropyl]-2-phenyl-3-(carboxymethoxy)quinoline-4-carboxamide],Ki,[1],> 10 µM
same,Ki,[2],2.33 µM and 5.25 µM
